Target: T1, Carbonic anhydrase 2 (Mycobacterium tuberculosis, UniProt P9WPJ9)
T1 sequence (P9WPJ9 whole entry): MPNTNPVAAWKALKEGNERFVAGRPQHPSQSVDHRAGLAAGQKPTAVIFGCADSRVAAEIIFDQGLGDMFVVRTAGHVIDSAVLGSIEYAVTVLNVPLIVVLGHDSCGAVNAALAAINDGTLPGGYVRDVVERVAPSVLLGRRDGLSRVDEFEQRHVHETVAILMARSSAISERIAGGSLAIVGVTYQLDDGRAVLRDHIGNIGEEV
Description: Inhibition of full length Mycobacterium tuberculosis H37Rv recombinant carbonic anhydrase 2 encoded by RV3588c by stopped flow CO2 hydration assay

Work on `NCCc1ccc(S(N)(=O)=O)cc1` yielded a Ki of 29.1 µM.

`Nc1ccc(S(N)(=O)=O)cc1Br` was tested, and the Ki was 31.6 µM.

Compound `Nc1ccc(S(N)(=O)=O)cc1I` has a Ki of 32.4 µM.

For `NS(=O)(=O)c1ccc(CO)cc1`, the Ki was 38.3 µM.

Work on `NCc1ccc(S(N)(=O)=O)cc1` [MAFENIDE] yielded a Ki of 30.7 µM.

`NS(=O)(=O)c1nnc(-c2ccccc2Cl)s1` showed a Ki of 45.2 µM.

In the case of `Cc1ccc(S(N)(=O)=O)cc1` [P-TOLUENESULFONAMIDE], the Ki is reported as 38.9 µM.

With `NS(=O)(=O)c1ccc(S(=O)(=O)Nc2cccc3c(Cl)c[nH]c23)cc1` the Ki was 0.717 µM.

`Nc1ccc(S(=O)(=O)NCCc2ccc(S(N)(=O)=O)cc2)cc1` gave a Ki of 2.29 µM.
